According to patent publication US20050170015A1 (priority 2000, published 2005):
Read-outs that look alike come from different tables or passages of the source.

What was measured:
[1] = system: murine fibrosarcomas (RIF-1 cells)
Excerpt: In each Example, the tumors were followed until they reached a size of four times their day zero treatment volume (TVQT), or up to 30 days after treatment, whichever came first. The data is expressed as the “tumor volume quadrupling time” (TVQT) mean and as the “delay.” Mean TVQT is the mean days required for individual tumors to grow to four times the tumor volume at the initial treatment day. […] The data is also expressed as the ratio of the tumor volume quadrupling time of the treated tumor over the untreated control group (TVQT/CTVQT). Increasing values of this ratio indicate increased antitumor response.

[2] = system: murine fibrosarcomas (RIF-1 cells); type: in vivo, C3H mice
Protocol: (§1) For the examples below, transplantable experimental murine fibrosarcomas (2×10^5 RIF-1 cells) were grown intradermally in the flank s of 3 month old female C3H mice (Charles River, Holister, Calif.). When the tumors reached a volume of approximately 100 mm^3, the mice were randomly assigned to each experimental group (4 mice per group).
(§2) Colchicine was obtained from Sigma-Aldrich (St. Louis, Mo.) and was made to the appropriate concentration in water for injection. After the treatments described below, the growth of the tumors was monitored three times per week by caliper measurements of three perpendicular diameters of the tumor. The tumor volume was calculated from the formula: V=π/6×D1×D2×D3, where D1-3 are the diameter measurements in mm.
(§3) In each Example, the tumors were followed until they reached a size of four times their day zero treatment volume (TVQT), or up to 30 days after treatment, whichever came first. The data is expressed as the “tumor volume quadrupling time” (TVQT) mean and as the “delay.” Mean TVQT is the mean days required for individual tumors to grow to four times the tumor volume at the initial treatment day. The “delay” is the median of days required for a tumor to grow to four times the mean size of the treated group, minus the median of days required to grow to four times the mean size of the control group. The data is also expressed as the ratio of the tumor volume quadrupling time of the treated tumor over the untreated control group (TVQT/CTVQT). Increasing values of this ratio indicate increased antitumor response.
Etoposide (Sigma-Aldrich, lot. 46H078) was made to the appropriate concentration in DMSO. Etoposide and colchicine were injected systemically (i.e., intraperitoneally, i.p.), in a volume of 100 μl. The experimental compositions were prepared as described in Table 2.

[3] = system: murine fibrosarcomas (RIF-1 cells); type: in vivo, C3H mice; remark: listed apart in the source
Protocol: as §1, §2, §3
Cisplatin (David Bull Laboratories—Mulgrave, Australia, lot. 5201844x) was made to the appropriate concentration in water for injection. Colchicine was given orally in a volume of 100 μl. Cisplatin was injected systemically (i.e., intraperitoneally, i.p.), in a volume of 100 μl. For the treatment of group 3, colchicine was given orally immediately prior to the intraperitoneal injection of cisplatin. The experimental compositions were prepared as described in Table 7.

[4] = system: RIF-1 murine fibrosarcoma; assay: RIF-1 tumor growth delay, thiocolchicine alone and with cisplatin, camptothecin or amonafide (Example 6); type: in vivo, C3H mice; conditions: Ex# E047
Protocol: Cisplatin for Injection, USP, was obtained as the commercial product from Bristol Laboratories (Platinol®, Lot No. K1F26A). Camptothecin was obtained from Boehinger-Ingelheim Lot 142088. Amonafide dihydrochloride was prepared in house, in a solution of 20 mg/ml. 0.9% Sodium Chloride for Injection, USP (saline) was manufactured by Abbott Laboratories (Lot No. 55-199-DK). Sterile Water for Injection, USP (WFI) was manufactured by Lyphomed, Inc. (Lot No. 390849). DMSO was obtained from Sigma (St. Louis, Mo.). DMF (dimethylformamide) was obtained from Sigma (St. Louis, Mo.). PEG400 was obtained from Sigma (St. Louis, Mo.).
For preparation of cisplatin formulation, the contents of a 10-mg vial of lyophilized CDDP (Cisplatin for Injection) was resuspended with 10 mL WFI to produce a 1 mg/mL CDDP suspension.
Camptothecin was prepared in a solution of DMSO at 0.75 mg/ml.
This was further diluted using saline to […].
Amonafide was diluted to 15 mg/ml with saline.
Food and water were available ad libitum.
Tumors: The RIF-1 murine fibrosarcoma cell line was maintained in in vitro culture (Wayrnouth medium supplemented with 20% fetal bovine serum) at 37° C. in a humidified 5% CO2 incubator. Log-phase RIF-1 cells were trypsinized and harvested from cell culture flasks to yield a concentration of 4×10^6 cells/mL, then injected intradermally in a volume of 50 μL (equivalent to 2×10^5 cells per injection) into both flanks of each mouse. Nine days later, when tumors reached approximately 100 mm^3 in size, the animals were randomized to different treatment groups.
Evaluation of Tumor Growth Delay: Tumors were measured three times weekly for up to 22 days with Vernier calipers. Tumor volume (cubic millimeters, mm^3) was calculated according to the formula: [formula] in which D1-3 are perpendicular diameters measured in millimeters (mm). Tumor volume quadrupling time (TVQT), defined as the time required for a tumor to grow to four times (4×) its initial volume (at the time of treatment), was used as a study endpoint.
The TVQT was determined for each treatment group and expressed in days as the mean±standard error (SE).

[5] = system: murine fibrosarcomas (RIF-1 cells); type: in vivo, C3H mice; remark: listed apart in the source
Protocol: as §1, §2, §3
Paclitaxel was obtained prediluted at 1 mg/ml in a cremaphor/ethanol solution. Colchicine was given at a dose of 2 mg/kg and paclitaxel was given, for each injection, at a dose of 10 mg/kg. For group 4, a total of three paclitaxel injections were given, one each on days 0, 3 and 5. The compositions were injected systemically (i.e., intraperitoneally, i.p.), in a volume of 100 μl.

[6] = system: murine fibrosarcomas (RIF-1 cells); assay: RIF-1 tumor growth delay, single-dose colchicine with camptothecin (Example 2A); type: in vivo, C3H mice
Protocol: as §1, §2, §3
A. Effect of Single Doses of Colchicine Administered Concurrently with Camptothecin Camptothecin (Boehringer Ingelheim-Lot 71012) was made to the appropriate concentration in DMSO. Colchicine was given orally in a volume of 100 μl. Camptothecin was injected systemically (i.e., intraperitoneally, i.p.), in a volume of 100 μl. For the treatment of group 3, colchicine was given orally immediately prior to the intraperitoneal injection of camptothecin. The experimental compositions were prepared as described in Table 4.

[7] = system: murine fibrosarcomas (RIF-1 cells); assay: RIF-1 tumor growth delay, single or multiple colchicine doses in mixed sequence with camptothecin (Example 2B); type: in vivo, C3H mice
Protocol: as §1, §2, §3
In FIG. 5, the arrow indicates a one hour interval separating treatment with each agent. The experimental compositions were prepared as described above. In two treatment groups, colchicine was administered orally in three doses (“colch×3” or “colchicine×3”). When three dosages of colchicine were administered, the first was given one hour after the administration of camptothecin (day 0), the second on day 1 and the third on day 2.

[8] = vinblastine 1 mg/kg i.p., 3× (days 0, 3, 6)
[9] = vinblastine 1 mg/kg i.p., 4× (days 0, 3, 6, 8)
[10] = paclitaxel 10 mg/kg i.p., 3× (days 0, 3, 5)
[11] = paclitaxel 10 mg/kg i.p., given once
[12] = colchicine 10 mg/kg oral × 3 (days 0, 1, 2)
[13] = colchicine 10 mg/kg oral, single dose
[14] = colchicine 2 mg/kg i.p. (Table 11: 1 mg/kg)

SMILES: CC[C@]1(O)C[C@@H]2CN(CCc3c([nH]c4ccccc34)[C@@](C(=O)OC)(c3cc4c(cc3OC)N(C)[C@H]3[C@@](O)(C(=O)OC)[C@H](OC(C)=O)[C@]5(CC)C=CCN6CC[C@]43[C@@H]65)C2)C1 [Vinblastine]
- Tumor growth delay curve when vinblastine was given after colchicine ([1]; group 7: vinblastine days 0, 3, colchicine day 6, vinblastine day 8): renewed sensitivity to vinblastine
- Delay ([1]; vinblastine 1 mg/kg i.p., 1×): 0.11 days
- Mean TVQT ± S.E. ([1]; vinblastine 1 mg/kg i.p., 1×): 6.6 ± 0.4 days
- Median (TVQT) ([1]; vinblastine 1 mg/kg i.p., 1×): 6.2 days
- TVQT/CTVQT ([1]; vinblastine 1 mg/kg i.p., 1×): 1.0
- Mean TVQT ± S.E. [1, 8]: 8.9 ± 0.9 days
- Median (TVQT) [1, 8]: 7.8 days
- TVQT/CTVQT [1, 8]: 1.4
- Mean TVQT ± S.E. [1, 9]: 8.4 ± .06 days
- Median (TVQT) [1, 9]: 8.6 days
- TVQT/CTVQT [1, 9]: 1.2

SMILES: COc1cc([C@@H]2c3cc4c(cc3[C@@H](O[C@@H]3O[C@@H]5CO[C@@H](C)O[C@H]5[C@H](O)[C@H]3O)[C@H]3COC(=O)[C@H]23)OCO4)cc(OC)c1O [Etoposide]
- Delay ([2]; etoposide 10 mg/kg i.p.): -0.17 days
- Mean TVQT ± S.E. ([2]; etoposide 10 mg/kg i.p.): 7.7 ± 0.5 days
- Median (TVQT) ([2]; etoposide 10 mg/kg i.p.): 7.5 days
- TVQT/CTVQT ([2]; etoposide 10 mg/kg i.p.): 1.0

SMILES: N.N.[Cl][Pt][Cl] [Cisplatin, cis-diamminedichloroplatinum II]
- Delay ([3]; cisplatin 4 mg/kg i.p.): 1.45 days
- Median (TGD) ([3]; cisplatin 4 mg/kg i.p.): 7.7 days
- TGD ± S.E. ([3]; cisplatin 4 mg/kg i.p.): 7.4 ± 0.3 days
- TGD/CTGD ([3]; cisplatin 4 mg/kg i.p.): 1.2
- Days to 4× (ave ± SE) ([4]; CDDP IP 4 mg/kg): 9.44 ± 0.42 days
- Days to 4× Median ([4]; CDDP IP 4 mg/kg): 9.22 days
- Delay ([4]; CDDP IP 4 mg/kg): 1.66 days
- T/C ([4]; CDDP IP 4 mg/kg): 1.2

SMILES: CC(=O)O[C@H]1C(=O)[C@@]2(C)[C@H]([C@H](OC(=O)c3ccccc3)[C@]3(O)C[C@H](OC(=O)[C@H](O)[C@@H](NC(=O)c4ccccc4)c4ccccc4)C(C)=C1C3(C)C)[C@]1(OC(C)=O)CO[C@@H]1C[C@@H]2O [Paclitaxel]
- Effectiveness of paclitaxel given 3 times versus once ([5]; RIF-1 model, paclitaxel 10 mg/kg i.p.): slightly more effective
- Delay [5, 10]: 1.59 days
- Mean TVQT ± S.E. [5, 10]: 10.8 ± 1.9 days
- Median (TVQT) [5, 10]: 9.0 days
- TVQT/CTVQT [5, 10]: 1.4
- Delay [5, 11]: 0.67 days
- Mean TVQT ± S.E. [5, 11]: 9.1 ± 0.7 days
- Median (TVQT) [5, 11]: 8.1 days
- TVQT/CTVQT [5, 11]: 1.2

SMILES: CN(C)CCN1C(=O)c2cccc3cc(N)cc(c23)C1=O [Amonafide]
- Days to 4× (ave ± SE) ([4]; amonafide IP 60 mg/kg): 9.8 ± 0.6 days
- Days to 4× Median ([4]; amonafide IP 60 mg/kg): 10.1 days
- Delay ([4]; amonafide IP 60 mg/kg): 2.55 days
- T/C ([4]; amonafide IP 60 mg/kg): 1.3

SMILES: CC[C@@]1(O)C(=O)OCc2c1cc1n(c2=O)Cc2cc3ccccc3nc2-1 [Camptothecin, camptothecin]
- Delay ([6]; camptothecin 6 mg/kg i.p.): 3.60 days
- Mean TVQT ± S.E. ([6]; camptothecin 6 mg/kg i.p.): 9.4 ± 0.5 days
- Median (TVQT) ([6]; camptothecin 6 mg/kg i.p.): 9.9 days
- TVQT/CTVQT ([6]; camptothecin 6 mg/kg i.p.): 1.5
- Days to 4× (Ave ± SE) ([7]; CPT 6 mg/kg IP): 12.9 ± 0.5 days
- Delay ([7]; CPT 6 mg/kg IP): 5.45 days
- Median ([7]; CPT 6 mg/kg IP): 12.8 days
- T/C ([7]; CPT 6 mg/kg IP): 1.7
- Days to 4× (ave ± SE) ([4]; camptothecin IP 3 mg/kg): 8.26 ± 0.46 days
- Days to 4× Median ([4]; camptothecin IP 3 mg/kg): 8.27 days
- Delay ([4]; camptothecin IP 3 mg/kg): 0.71 days
- T/C ([4]; camptothecin IP 3 mg/kg): 1.1

SMILES: COc1cc2c(c(OC)c1OC)-c1ccc(OC)c(=O)cc1[C@@H](NC(C)=O)CC2 [Colchicine, (S)-N-(5,6,7,9-tetrahydro-1,2,3,10-tetramethoxy-9-oxobenzo[a]heptalen-7-yl)acetamide]
- Effect of colchicine on the antiproliferative activity of etoposide ([2]; both compounds (group 4) versus etoposide alone or colchicine alone): more than additive effect
- Delay ([2]; colchicine 2 mg/kg i.p.): 1.65 days
- Mean TVQT ± S.E. ([2]; colchicine 2 mg/kg i.p.): 9.5 ± 0.2 days
- Median (TVQT) ([2]; colchicine 2 mg/kg i.p.): 9.3 days
- TVQT/CTVQT ([2]; colchicine 2 mg/kg i.p.): 1.2
- Effect of colchicine on the antiproliferative activity of camptothecin ([6]; both compounds (group 4) versus camptothecin alone or colchicine alone): more than additive effect
- Delay ([6]; colchicine 10 mg/kg oral): 0.02 days
- Mean TVQT ± S.E. ([6]; colchicine 10 mg/kg oral): 6.4 ± 0.3 days
- Median (TVQT) ([6]; colchicine 10 mg/kg oral): 6.3 days
- TVQT/CTVQT ([6]; colchicine 10 mg/kg oral): 1.0
- Days to 4× (Ave ± SE) [7, 12]: 7.2 ± 0.3 days
- Delay [7, 12]: -0.04 days
- Median [7, 12]: 7.3 days
- T/C [7, 12]: 1.0
- Tumor growth delay, three doses of colchicine compared to a single dose ([7]; colchicine 10 mg/kg oral × 3 versus single dose): did not delay tumor growth significantly
- Days to 4× (Ave ± SE) [7, 13]: 7.7 ± 0.4 days
- Delay [7, 13]: 0.32 days
- Median [7, 13]: 7.6 days
- T/C [7, 13]: 1.0
- Effect of colchicine on the antiproliferative activity of cisplatin ([3]; both compounds (group 4) versus cisplatin alone or colchicine alone): more than additive effect
- Delay ([3]; colchicine 10 mg/kg oral): 0.02 days
- Median (TGD) ([3]; colchicine 10 mg/kg oral): 6.3 days
- TGD ± S.E. ([3]; colchicine 10 mg/kg oral): 6.4 ± 0.3 days
- TGD/CTGD ([3]; colchicine 10 mg/kg oral): 1.0
- Delay [5, 14]: 3.34 days
- Mean TVQT ± S.E. [5, 14]: 11.3 ± 0.6 days
- Median (TVQT) [5, 14]: 10.8 days
- TVQT/CTVQT [5, 14]: 1.5
- Delay ([1]; colchicine 1 mg/kg i.p.): 1.15 days
- Mean TVQT ± S.E. ([1]; colchicine 1 mg/kg i.p.): 7.2 ± 0.5 days
- Median (TVQT) ([1]; colchicine 1 mg/kg i.p.): 7.2 days
- TVQT/CTVQT ([1]; colchicine 1 mg/kg i.p.): 1.1
